Source: the kinase profiling compilation of Christmann-Franck et al. (2016)

Columns and labels:
Test in all cases: radiometric filter-binding kinase assay
BRSK2 (human) = BRSK2 (human) (UniProt Q8IWQ3)
MARK3 (human) = MARK3 (human) (UniProt P27448)
EEF2K (human) = EEF2K (human) (UniProt O00418)
MARK4 (human) = MARK4 (human) (UniProt Q96L34)
HIPK1 (human) = HIPK1 (human) (UniProt Q86Z02)
PRKCA (human) = PRKCA (human) (UniProt P17252)
PLK1 (human) = PLK1 (human) (UniProt P53350)
MAPK1 (human) = MAPK1 (human) (UniProt P28482)
RPS6KA3 KD1 KD2 (human) = RPS6KA3 KD1 KD2 (human) (UniProt P51812)
RPS6KA3 KD1 KD2 (human), sequence (P51812 whole entry, looked up): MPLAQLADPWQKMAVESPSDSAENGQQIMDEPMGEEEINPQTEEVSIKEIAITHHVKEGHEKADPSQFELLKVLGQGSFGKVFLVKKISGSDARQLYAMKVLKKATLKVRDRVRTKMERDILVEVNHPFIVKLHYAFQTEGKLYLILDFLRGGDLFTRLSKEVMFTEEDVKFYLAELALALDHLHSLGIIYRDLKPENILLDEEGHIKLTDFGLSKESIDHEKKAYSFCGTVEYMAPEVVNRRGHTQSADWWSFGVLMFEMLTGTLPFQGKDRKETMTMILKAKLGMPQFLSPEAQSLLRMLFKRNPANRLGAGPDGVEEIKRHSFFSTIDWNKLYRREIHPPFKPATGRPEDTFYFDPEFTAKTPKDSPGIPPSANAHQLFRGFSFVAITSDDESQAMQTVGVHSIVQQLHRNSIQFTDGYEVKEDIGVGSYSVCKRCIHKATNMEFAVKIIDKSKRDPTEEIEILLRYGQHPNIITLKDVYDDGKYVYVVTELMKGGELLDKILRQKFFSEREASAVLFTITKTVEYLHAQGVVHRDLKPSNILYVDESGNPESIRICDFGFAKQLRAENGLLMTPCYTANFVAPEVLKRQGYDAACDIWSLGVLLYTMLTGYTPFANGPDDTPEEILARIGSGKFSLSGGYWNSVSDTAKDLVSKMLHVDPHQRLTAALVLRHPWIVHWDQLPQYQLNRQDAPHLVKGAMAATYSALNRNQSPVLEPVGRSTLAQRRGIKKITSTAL

PAK6 (human) = PAK6 (human) (UniProt Q9NQU5)
MST4 (human) = MST4 (human) (UniProt Q9P289)
MAPK3 (human) = MAPK3 (human) (UniProt P27361)
CLK2 (human) = CLK2 (human) (UniProt P49760)
DAPK1 (human) = DAPK1 (human) (UniProt P53355)
HIPK3 (human) = HIPK3 (human) (UniProt Q9H422)
SRC (human) = SRC (human) (UniProt P12931)
SRC (human), sequence (P12931 whole entry, looked up): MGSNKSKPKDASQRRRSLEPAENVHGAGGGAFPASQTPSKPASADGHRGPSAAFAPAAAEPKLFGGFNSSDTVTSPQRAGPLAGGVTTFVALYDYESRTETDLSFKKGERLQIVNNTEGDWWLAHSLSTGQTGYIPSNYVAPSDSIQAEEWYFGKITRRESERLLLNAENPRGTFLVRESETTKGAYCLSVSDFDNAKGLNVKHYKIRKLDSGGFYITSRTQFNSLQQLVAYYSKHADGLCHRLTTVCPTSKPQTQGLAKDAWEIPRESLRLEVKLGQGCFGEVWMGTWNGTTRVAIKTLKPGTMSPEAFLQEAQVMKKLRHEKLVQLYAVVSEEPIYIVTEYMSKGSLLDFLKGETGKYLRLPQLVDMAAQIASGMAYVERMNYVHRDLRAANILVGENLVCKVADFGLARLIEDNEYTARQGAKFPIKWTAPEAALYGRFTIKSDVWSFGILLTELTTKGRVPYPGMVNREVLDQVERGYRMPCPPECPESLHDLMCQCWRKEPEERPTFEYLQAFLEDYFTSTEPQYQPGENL

[1] = tested on: SGK1 (human), O00141 [S422D]
RPS6KA1 KD1 KD2 (human) = RPS6KA1 KD1 KD2 (human) (UniProt Q15418)
CHEK2 (human) = CHEK2 (human) (UniProt O96017)
PRKCZ (human) = PRKCZ (human) (UniProt Q05513)
NUAK1 (human) = NUAK1 (human) (UniProt O60285)
TAOK1 (human) = TAOK1 (human) (UniProt Q7L7X3)
MAP3K1 (human) = MAP3K1 (human) (UniProt Q13233)
STK3 (human) = STK3 (human) (UniProt Q13188)
STK3 (human), sequence (Q13188 whole entry, looked up): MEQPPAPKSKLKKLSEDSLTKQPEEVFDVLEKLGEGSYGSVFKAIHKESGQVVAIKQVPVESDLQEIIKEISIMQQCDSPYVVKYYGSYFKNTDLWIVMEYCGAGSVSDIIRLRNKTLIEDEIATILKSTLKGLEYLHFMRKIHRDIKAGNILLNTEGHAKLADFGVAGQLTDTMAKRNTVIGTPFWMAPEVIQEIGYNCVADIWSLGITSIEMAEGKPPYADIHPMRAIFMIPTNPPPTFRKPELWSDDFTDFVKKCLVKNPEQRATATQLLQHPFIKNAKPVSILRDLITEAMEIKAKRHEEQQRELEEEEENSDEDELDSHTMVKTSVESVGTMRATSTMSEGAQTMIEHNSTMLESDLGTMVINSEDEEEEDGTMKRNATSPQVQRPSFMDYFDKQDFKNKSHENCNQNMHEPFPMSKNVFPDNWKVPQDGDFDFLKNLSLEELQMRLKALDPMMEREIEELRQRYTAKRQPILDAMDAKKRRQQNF

JAK2 JH1 JH2 (human) = JAK2 JH1 JH2 (human) (UniProt O60674)
CDK2 CCNA2 (human) = CDK2 CCNA2 (human) (UniProt P20248+P24941)
ERBB4 (human) = ERBB4 (human) (UniProt Q15303)
NTRK1 (human) = NTRK1 (human) (UniProt P04629)
RPS6KA5 KD1 KD2 (human) = RPS6KA5 KD1 KD2 (human) (UniProt O75582)
RPS6KA5 KD1 KD2 (human), sequence (O75582 whole entry, looked up): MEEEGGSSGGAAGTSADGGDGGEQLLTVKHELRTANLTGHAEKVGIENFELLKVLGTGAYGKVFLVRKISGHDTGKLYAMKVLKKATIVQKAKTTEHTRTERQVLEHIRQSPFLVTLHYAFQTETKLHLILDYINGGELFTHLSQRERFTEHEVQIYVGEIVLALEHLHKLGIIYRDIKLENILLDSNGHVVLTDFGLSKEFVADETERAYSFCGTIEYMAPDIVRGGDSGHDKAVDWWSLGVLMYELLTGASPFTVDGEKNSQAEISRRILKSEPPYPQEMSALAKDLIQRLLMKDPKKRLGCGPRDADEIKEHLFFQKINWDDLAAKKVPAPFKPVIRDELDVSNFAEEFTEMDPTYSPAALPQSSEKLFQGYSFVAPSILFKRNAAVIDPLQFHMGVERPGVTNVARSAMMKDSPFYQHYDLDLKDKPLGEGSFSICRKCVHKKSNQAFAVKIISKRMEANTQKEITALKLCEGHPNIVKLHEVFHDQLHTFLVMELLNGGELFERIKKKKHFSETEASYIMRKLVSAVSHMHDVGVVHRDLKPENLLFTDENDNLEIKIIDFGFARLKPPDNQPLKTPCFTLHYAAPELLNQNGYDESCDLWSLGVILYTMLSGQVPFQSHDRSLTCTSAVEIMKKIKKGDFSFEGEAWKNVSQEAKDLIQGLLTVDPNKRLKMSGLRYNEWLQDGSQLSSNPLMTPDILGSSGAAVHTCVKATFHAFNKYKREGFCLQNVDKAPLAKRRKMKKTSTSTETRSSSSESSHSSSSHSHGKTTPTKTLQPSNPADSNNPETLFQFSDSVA

AURKA (human) = AURKA (human) (UniProt O14965)
FLT1 (human) = FLT1 (human) (UniProt P17948)
FLT1 (human), sequence (P17948 whole entry, looked up): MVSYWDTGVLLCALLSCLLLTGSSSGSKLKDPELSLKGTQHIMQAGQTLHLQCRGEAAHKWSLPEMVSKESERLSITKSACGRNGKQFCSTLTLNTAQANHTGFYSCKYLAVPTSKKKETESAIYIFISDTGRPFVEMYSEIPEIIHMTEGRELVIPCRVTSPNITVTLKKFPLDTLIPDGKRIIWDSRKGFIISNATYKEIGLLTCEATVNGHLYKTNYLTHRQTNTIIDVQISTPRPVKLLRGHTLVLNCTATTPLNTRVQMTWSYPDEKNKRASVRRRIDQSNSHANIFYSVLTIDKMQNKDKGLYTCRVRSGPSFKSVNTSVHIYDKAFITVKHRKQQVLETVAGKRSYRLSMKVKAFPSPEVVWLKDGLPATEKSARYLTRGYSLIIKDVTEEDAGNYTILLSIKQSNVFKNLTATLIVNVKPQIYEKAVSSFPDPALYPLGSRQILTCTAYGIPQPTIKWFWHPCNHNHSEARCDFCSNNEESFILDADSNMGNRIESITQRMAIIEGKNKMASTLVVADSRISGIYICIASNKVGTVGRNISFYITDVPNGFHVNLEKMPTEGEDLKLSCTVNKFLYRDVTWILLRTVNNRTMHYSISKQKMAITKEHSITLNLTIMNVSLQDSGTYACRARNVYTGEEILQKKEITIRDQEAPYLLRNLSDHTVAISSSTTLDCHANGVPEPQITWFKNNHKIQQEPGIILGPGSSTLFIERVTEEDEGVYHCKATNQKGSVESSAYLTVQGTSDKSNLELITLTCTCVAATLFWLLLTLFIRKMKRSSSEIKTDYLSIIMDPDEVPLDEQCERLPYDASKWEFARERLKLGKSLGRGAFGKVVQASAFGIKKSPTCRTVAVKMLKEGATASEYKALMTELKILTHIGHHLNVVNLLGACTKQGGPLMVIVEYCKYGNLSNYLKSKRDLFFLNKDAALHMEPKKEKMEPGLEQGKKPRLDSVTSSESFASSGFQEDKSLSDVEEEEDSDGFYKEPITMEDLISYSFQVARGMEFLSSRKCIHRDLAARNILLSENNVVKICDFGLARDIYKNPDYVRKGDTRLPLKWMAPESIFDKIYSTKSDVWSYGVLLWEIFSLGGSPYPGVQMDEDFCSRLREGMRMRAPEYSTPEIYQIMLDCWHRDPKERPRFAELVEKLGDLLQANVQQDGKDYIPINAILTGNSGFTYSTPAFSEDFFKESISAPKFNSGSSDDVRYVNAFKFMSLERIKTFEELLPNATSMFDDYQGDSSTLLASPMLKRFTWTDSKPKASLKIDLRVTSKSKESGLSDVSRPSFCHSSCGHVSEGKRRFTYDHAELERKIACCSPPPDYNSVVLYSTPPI

GCK (human) = GCK (human) (UniProt Q12851)
MAP3K5 (human) = MAP3K5 (human) (UniProt Q99683)
CHEK1 (human) = CHEK1 (human) (UniProt O14757)
CHEK1 (human), sequence (O14757 whole entry, looked up): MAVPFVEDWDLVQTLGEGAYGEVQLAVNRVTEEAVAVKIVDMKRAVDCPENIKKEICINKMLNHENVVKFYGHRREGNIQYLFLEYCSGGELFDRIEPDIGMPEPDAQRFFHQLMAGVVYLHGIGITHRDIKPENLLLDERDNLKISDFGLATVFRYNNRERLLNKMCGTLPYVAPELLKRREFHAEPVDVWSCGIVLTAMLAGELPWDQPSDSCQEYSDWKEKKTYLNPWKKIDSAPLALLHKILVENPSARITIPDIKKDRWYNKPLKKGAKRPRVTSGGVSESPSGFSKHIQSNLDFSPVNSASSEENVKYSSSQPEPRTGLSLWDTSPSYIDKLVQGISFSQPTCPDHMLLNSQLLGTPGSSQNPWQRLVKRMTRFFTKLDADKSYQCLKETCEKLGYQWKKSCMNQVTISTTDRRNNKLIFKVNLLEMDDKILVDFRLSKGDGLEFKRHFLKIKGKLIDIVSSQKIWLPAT

EPHB4 (human) = EPHB4 (human) (UniProt P54760)

PLK1 (human), sequence (P53350 whole entry, looked up): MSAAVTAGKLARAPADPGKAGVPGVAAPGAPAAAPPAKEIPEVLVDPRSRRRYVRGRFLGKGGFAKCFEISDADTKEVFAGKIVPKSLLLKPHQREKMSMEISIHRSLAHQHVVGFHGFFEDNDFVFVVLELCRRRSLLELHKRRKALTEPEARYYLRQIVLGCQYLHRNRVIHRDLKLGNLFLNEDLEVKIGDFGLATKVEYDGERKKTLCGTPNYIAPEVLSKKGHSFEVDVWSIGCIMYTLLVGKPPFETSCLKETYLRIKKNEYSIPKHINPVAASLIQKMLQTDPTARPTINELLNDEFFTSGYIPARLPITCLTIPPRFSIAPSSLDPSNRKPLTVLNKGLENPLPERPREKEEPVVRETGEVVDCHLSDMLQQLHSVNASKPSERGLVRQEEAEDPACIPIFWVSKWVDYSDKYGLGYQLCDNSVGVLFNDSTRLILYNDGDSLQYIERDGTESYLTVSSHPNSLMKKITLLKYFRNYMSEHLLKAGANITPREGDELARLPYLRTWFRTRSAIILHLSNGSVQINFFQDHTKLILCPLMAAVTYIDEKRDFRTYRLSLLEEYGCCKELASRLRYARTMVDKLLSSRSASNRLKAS

Oc1ccc2ccccc2c1SSc1c(O)ccc2ccccc12
residual activity (BRSK2 (human); compound 1.0 µM): 39% | residual activity (BRSK2 (human); compound 5.0 µM): 14% | residual activity (BRSK2 (human); compound 10.0 µM): 48% | residual activity (MARK3 (human); compound 1.0 µM): 81% | residual activity (MARK3 (human); compound 5.0 µM): 63% | residual activity (MARK3 (human); compound 10.0 µM): 69% | residual activity (EEF2K (human); compound 1.0 µM): 83% | residual activity (EEF2K (human); compound 5.0 µM): 60% | residual activity (EEF2K (human); compound 10.0 µM): 89% | residual activity (MARK4 (human); compound 1.0 µM): 47% | residual activity (MARK4 (human); compound 5.0 µM): 41% | residual activity (HIPK1 (human); compound 1.0 µM): 52% | residual activity (HIPK1 (human); compound 5.0 µM): 48% | residual activity (PRKCA (human); compound 1.0 µM): 91% | residual activity (PRKCA (human); compound 5.0 µM): 48% | residual activity (PRKCA (human); compound 10.0 µM): 65% | residual activity (PLK1 (human); compound 1.0 µM): 90% | residual activity (PLK1 (human); compound 5.0 µM): 12% | residual activity (PLK1 (human); compound 10.0 µM): 9% | residual activity (MAPK1 (human); compound 1.0 µM): 56% | residual activity (MAPK1 (human); compound 5.0 µM): 39% | residual activity (MAPK1 (human); compound 10.0 µM): 101% | residual activity (RPS6KA3 KD1 KD2 (human); compound 1.0 µM): 12% | residual activity (RPS6KA3 KD1 KD2 (human); compound 5.0 µM): 6% | residual activity (RPS6KA3 KD1 KD2 (human); compound 10.0 µM): 6% | residual activity (PAK6 (human); compound 1.0 µM): 86% | residual activity (PAK6 (human); compound 5.0 µM): 45% | residual activity (PAK6 (human); compound 10.0 µM): 101% | residual activity (MST4 (human); compound 1.0 µM): 6% | residual activity (MST4 (human); compound 5.0 µM): 8% | residual activity (MST4 (human); compound 10.0 µM): 53% | residual activity (MAPK3 (human); compound 1.0 µM): 9% | residual activity (MAPK3 (human); compound 5.0 µM): 6% | residual activity (MAPK3 (human); compound 10.0 µM): 8% | residual activity (CLK2 (human); compound 1.0 µM): 77% | residual activity (CLK2 (human); compound 5.0 µM): 48% | residual activity (DAPK1 (human); compound 1.0 µM): 101% | residual activity (DAPK1 (human); compound 5.0 µM): 83% | residual activity (HIPK3 (human); compound 1.0 µM): 37% | residual activity (HIPK3 (human); compound 5.0 µM): 33% | residual activity (SRC (human); compound 1.0 µM): 42% | residual activity (SRC (human); compound 5.0 µM): 17% | residual activity (SRC (human); compound 10.0 µM): 89% | residual activity ([1]; compound 1.0 µM): 89% | residual activity ([1]; compound 5.0 µM): 48% | residual activity ([1]; compound 10.0 µM): 107% | residual activity (RPS6KA1 KD1 KD2 (human); compound 1.0 µM): 78% | residual activity (RPS6KA1 KD1 KD2 (human); compound 5.0 µM): 62% | residual activity (CHEK2 (human); compound 1.0 µM): 58% | residual activity (CHEK2 (human); compound 5.0 µM): 34% | residual activity (CHEK2 (human); compound 10.0 µM): 94% | residual activity (PRKCZ (human); compound 1.0 µM): 44% | residual activity (PRKCZ (human); compound 5.0 µM): 11% | residual activity (PRKCZ (human); compound 10.0 µM): 39% | residual activity (NUAK1 (human); compound 1.0 µM): 11% | residual activity (NUAK1 (human); compound 5.0 µM): 6% | residual activity (TAOK1 (human); compound 1.0 µM): 103% | residual activity (TAOK1 (human); compound 5.0 µM): 102% | residual activity (MAP3K1 (human); compound 1.0 µM): 64% | residual activity (MAP3K1 (human); compound 5.0 µM): 38% | residual activity (STK3 (human); compound 1.0 µM): 5% | residual activity (STK3 (human); compound 5.0 µM): 6% | residual activity (STK3 (human); compound 10.0 µM): 51% | residual activity (JAK2 JH1 JH2 (human); compound 1.0 µM): 72% | residual activity (JAK2 JH1 JH2 (human); compound 5.0 µM): 34% | residual activity (CDK2 CCNA2 (human); compound 1.0 µM): 101% | residual activity (CDK2 CCNA2 (human); compound 5.0 µM): 106% | residual activity (CDK2 CCNA2 (human); compound 10.0 µM): 88% | residual activity (ERBB4 (human); compound 1.0 µM): 62% | residual activity (ERBB4 (human); compound 5.0 µM): 49% | residual activity (NTRK1 (human); compound 1.0 µM): 63% | residual activity (NTRK1 (human); compound 5.0 µM): 19% | residual activity (RPS6KA5 KD1 KD2 (human); compound 1.0 µM): 79% | residual activity (RPS6KA5 KD1 KD2 (human); compound 5.0 µM): 65% | residual activity (RPS6KA5 KD1 KD2 (human); compound 10.0 µM): 101% | residual activity (AURKA (human); compound 1.0 µM): 2% | residual activity (AURKA (human); compound 5.0 µM): 2% | residual activity (FLT1 (human); compound 1.0 µM): 6% | residual activity (FLT1 (human); compound 5.0 µM): 4% | residual activity (FLT1 (human); compound 10.0 µM): 47% | residual activity (GCK (human); compound 1.0 µM): 30% | residual activity (GCK (human); compound 5.0 µM): 2% | residual activity (MAP3K5 (human); compound 1.0 µM): 129% | residual activity (MAP3K5 (human); compound 5.0 µM): 154% | residual activity (CHEK1 (human); compound 1.0 µM): 89% | residual activity (CHEK1 (human); compound 5.0 µM): 88% | residual activity (CHEK1 (human); compound 10.0 µM): 88% | residual activity (EPHB4 (human); compound 1.0 µM): 109% | residual activity (EPHB4 (human); compound 5.0 µM): 119%
